Source: ChEMBL document CHEMBL5385907, “Proline-Hinged α-Helical Peptides Sensitize Gram-Positive Antibiotics, Expanding Their Physicochemical Properties to Be Used as Gram-Negative Antibiotics” (J Med Chem, 2024)
In brackets after ≈: the same amount, converted by molar mass. Activity calls are given as the source filed them. The rule behind the calls is not given here. Residues, ends and D or L forms follow the SMILES beside them.

How the values were obtained:
[1] = Hydrophobicity of the compound assessed as retention time by reversed-phase HPLC analysis; format: physicochemical
[2] = tested on: Klebsiella pneumoniae; test: Antibacterial activity against Klebsiella pneumoniae ATCC 700603 assessed as inhibition of bacterial growth incubated for 18 hrs by two fold serial dilution assay; format: functional
[3] = tested on: Escherichia coli; test: Antibacterial activity against Escherichia coli ATCC 25922 assessed as inhibition of bacterial growth incubated for 18 hrs by two fold serial dilution assay; format: functional
[4] = Hemolytic activity in human blood assessed as hemolysis incubated for 6 hrs by microplate reader analysis; format: toxicity, tissue-based
[5] = tested on: Acinetobacter baumannii; test: Antibacterial activity against Acinetobacter baumannii ATCC 17978 assessed as inhibition of bacterial growth incubated for 18 hrs by two fold serial dilution assay; format: functional
[6] = tested on: Escherichia coli; test: Potentiation of erythromycin induced antibacterial activity against Escherichia coli ATCC 25922 assessed as decrease in bacterial growth at 0.4 uM incubated for 18 hrs in presence of erythromycin by two fold serial dilution assay; format: functional, organism-based
[7] = tested on: Klebsiella pneumoniae; test: Potentiation of fusidic acid induced antibacterial activity against Klebsiella pneumoniae ATCC 700603 assessed as decrease in bacterial growth at 0.4 uM incubated for 18 hrs in presence of fusidic acid by two fold serial dilution assay; format: functional, organism-based
[8] = tested on: Acinetobacter baumannii; test: Potentiation of erythromycin induced antibacterial activity against Acinetobacter baumannii ATCC 17978 assessed as decrease in bacterial growth at 0.4 uM incubated for 18 hrs in presence of erythromycin by two fold serial dilution assay; format: functional, organism-based
[9] = tested on: Escherichia coli; test: Potentiation of novobiocin induced antibacterial activity against Escherichia coli ATCC 25922 assessed as decrease in bacterial growth at 0.4 uM incubated for 18 hrs in presence of novobiocin by two fold serial dilution assay; format: functional, organism-based
[10] = tested on: Escherichia coli; test: Potentiation of fusidic acid induced antibacterial activity against Escherichia coli ATCC 25922 assessed as decrease in bacterial growth at 0.4 uM incubated for 18 hrs in presence of fusidic acid by two fold serial dilution assay; format: functional, organism-based
[11] = tested on: Klebsiella pneumoniae; test: Potentiation of erythromycin induced antibacterial activity against Klebsiella pneumoniae ATCC 700603 assessed as decrease in bacterial growth at 0.4 uM incubated for 18 hrs in presence of erythromycin by two fold serial dilution assay; format: functional, organism-based
[12] = tested on: Klebsiella pneumoniae; test: Potentiation of novobiocin induced antibacterial activity against Klebsiella pneumoniae ATCC 700603 assessed as decrease in bacterial growth at 0.4 uM incubated for 18 hrs in presence of novobiocin by two fold serial dilution assay; format: functional, organism-based
[13] = tested on: Acinetobacter baumannii; test: Potentiation of fusidic acid induced antibacterial activity against Acinetobacter baumannii ATCC 17978 assessed as decrease in bacterial growth at 0.4 uM incubated for 18 hrs in presence of fusidic acid by two fold serial dilution assay; format: functional, organism-based
[14] = tested on: Acinetobacter baumannii; test: Potentiation of novobiocin induced antibacterial activity against Acinetobacter baumannii ATCC 17978 assessed as decrease in bacterial growth at 0.4 uM incubated for 18 hrs in presence of novobiocin by two fold serial dilution assay; format: functional, organism-based

Compound | Retention_time [1] [min] | MIC [2] [µM] | MIC [3] [µM] | MHC10 [4] [µM] | MIC [5] [µM] | Activity [6] | Activity [7] | Activity [8] | Activity [9] | Activity [10] | Activity [11] | Activity [12] | Activity [13] | Activity [14]
Ac-KLLKLLKKPLKLL-NH2 | 19.4 | > 80 | > 80 | > 160 | 20 |  |  |  |  |  |  |  |  | 
Ac-KKLLKLLKKPAKLLK-NH2 | 17.1 | > 80 | > 80 | > 160 | 80 | Active | Active | Active | Active | Active | Active | Active | Active | Active
CCCCCC(=O)N[C@@H](CCCCN)C(=O)N[C@@H](CCCCN)C(=O)N[C@@H](C)C(=O)N[C@@H](CC(C)C)C(=O)N[C@@H](CCCCN)C(=O)N[C@@H](CC(C)C)C(=O)N[C@@H](C)C(=O)N[C@@H](CCCCN)C(=O)N[C@@H](CCCCN)C(=O)N1CCC[C@H]1C(=O)N[C@@H](CC(C)C)C(=O)N[C@@H](CCCCN)C(=O)N[C@@H](CC(C)C)C(=O)N[C@@H](CC(C)C)C(=O)N[C@@H](CCCCN)C(N)=O (HELM PEPTIDE1{[CCCCCC(=O)[*:2]].K.K.A.L.K.L.A.K.K.P.L.K.L.L.K.[am]}$$$$V2.0) | 17.1 | > 80 | > 80 | > 160 | 80 (≈ 145 µg/mL) |  |  |  |  |  |  |  |  | 
Ac-KKLLKLLAKPLKLLK-NH2 | 19.6 | > 80 | > 80 | > 160 | 40 | Active | Active | Active | Active | Active | Active | Active | Active | Active
Ac-KKLLKLLKKPLKALK-NH2 | 17.5 | > 80 | > 80 | > 160 | 40 | Active | Active | Active | Active | Active | Active | Active | Active | Active
Ac-KKLLKLLKAPLKLLK-NH2 | 19.6 | > 80 | > 80 | > 160 | 20 | Active | Active | Active | Active | Active | Active | Active | Active | Active
CCCCCCCCCCCCCCCC(=O)N[C@@H](CCCCN)C(=O)N[C@@H](CCCCN)C(=O)N[C@@H](C)C(=O)N[C@@H](CC(C)C)C(=O)N[C@@H](CCCCN)C(=O)N[C@@H](CC(C)C)C(=O)N[C@@H](C)C(=O)N[C@@H](CCCCN)C(=O)N[C@@H](CCCCN)C(=O)N1CCC[C@H]1C(=O)N[C@@H](CC(C)C)C(=O)N[C@@H](CCCCN)C(=O)N[C@@H](CC(C)C)C(=O)N[C@@H](CC(C)C)C(=O)N[C@@H](CCCCN)C(N)=O (HELM PEPTIDE1{[CCCCCCCCCCCCCCCC(=O)[*:2]].K.K.A.L.K.L.A.K.K.P.L.K.L.L.K.[am]}$$$$V2.0) | 22.9 | 10 (≈ 19.6 µg/mL) | 5 (≈ 9.79 µg/mL) | 5.9 | 1.3 (≈ 2.55 µg/mL) |  |  |  |  |  |  |  |  | 
Ac-KKLLALLKKPLKLLK-NH2 | 19.4 | 80 | 80 | > 160 | 20 | Active | Active | Active | Active | Active | Active | Active | Active | Active
Ac-KALLKLLKKPLKLLK-NH2 | 19.4 | > 80 | > 80 | > 160 | 20 | Active | Active | Active | Active | Active | Active | Active | Active | Active
Ac-KLLKLLKKPLKLLKK-NH2 | 18.2 | > 80 | > 80 | > 160 | 20 |  |  |  |  |  |  |  |  | 
Ac-KKALKLAKKPLKLLK-NH2 | 15.3 | > 80 | > 80 | > 160 | > 80 |  |  |  |  |  |  |  |  | 
Ac-LKLLKKPLKLLK-NH2 | 18 | > 80 | > 80 | > 160 | > 80 |  |  |  |  |  |  |  |  | 
Ac-KLLKLLKKPLKLLKKL-NH2 | 19.7 | 40 | > 80 | > 160 | 5 |  |  |  |  |  |  |  |  | 
NCC[C@H](O)C(=O)N[C@@H]1C[C@H](N)[C@@H](O[C@H]2O[C@H](CN)[C@@H](O)[C@H](O)[C@H]2O)[C@H](O)[C@H]1O[C@H]1O[C@H](CO)[C@@H](O)[C@H](N)[C@H]1O [AMIKACIN] |  | 2.5 (≈ 1.46 µg/mL) | 5 (≈ 2.93 µg/mL) |  | 2.5 (≈ 1.46 µg/mL) |  |  |  |  |  |  |  |  | 
Ac-LLKLLKKPLKLLK-NH2 | 19.8 | > 80 | > 80 | > 160 | > 80 |  |  |  |  |  |  |  |  | 
Ac-KLLKLLKKPLKL-NH2 | 18 | > 80 | > 80 | > 160 | > 80 |  |  |  |  |  |  |  |  | 
Ac-LKKLLKLLKKPLKLLK-NH2 | 20.1 | 2.5 | > 10 | 53 | 1.3 |  |  |  |  |  |  |  |  | 
CCCCCCCCCCCCCC(=O)N[C@@H](CCCCN)C(=O)N[C@@H](CCCCN)C(=O)N[C@@H](C)C(=O)N[C@@H](CC(C)C)C(=O)N[C@@H](CCCCN)C(=O)N[C@@H](CC(C)C)C(=O)N[C@@H](C)C(=O)N[C@@H](CCCCN)C(=O)N[C@@H](CCCCN)C(=O)N1CCC[C@H]1C(=O)N[C@@H](CC(C)C)C(=O)N[C@@H](CCCCN)C(=O)N[C@@H](CC(C)C)C(=O)N[C@@H](CC(C)C)C(=O)N[C@@H](CCCCN)C(N)=O (HELM PEPTIDE1{[CCCCCCCCCCCCCC(=O)[*:2]].K.K.A.L.K.L.A.K.K.P.L.K.L.L.K.[am]}$$$$V2.0) | 21.7 | 20 (≈ 38.6 µg/mL) | 5 (≈ 9.65 µg/mL) | 53 | 1.3 (≈ 2.51 µg/mL) |  |  |  |  |  |  |  |  | 
CCCCCCCCCCCC(=O)N[C@@H](CCCCN)C(=O)N[C@@H](CCCCN)C(=O)N[C@@H](C)C(=O)N[C@@H](CC(C)C)C(=O)N[C@@H](CCCCN)C(=O)N[C@@H](CC(C)C)C(=O)N[C@@H](C)C(=O)N[C@@H](CCCCN)C(=O)N[C@@H](CCCCN)C(=O)N1CCC[C@H]1C(=O)N[C@@H](CC(C)C)C(=O)N[C@@H](CCCCN)C(=O)N[C@@H](CC(C)C)C(=O)N[C@@H](CC(C)C)C(=O)N[C@@H](CCCCN)C(N)=O (HELM PEPTIDE1{[CCCCCCCCCCCC(=O)[*:2]].K.K.A.L.K.L.A.K.K.P.L.K.L.L.K.[am]}$$$$V2.0) | 20.4 | 80 (≈ 152 µg/mL) | 10 (≈ 19 µg/mL) | 160 | 2.5 (≈ 4.75 µg/mL) |  |  |  |  |  |  |  |  | 
CCCCCCCCCC(=O)N[C@@H](CCCCN)C(=O)N[C@@H](CCCCN)C(=O)N[C@@H](C)C(=O)N[C@@H](CC(C)C)C(=O)N[C@@H](CCCCN)C(=O)N[C@@H](CC(C)C)C(=O)N[C@@H](C)C(=O)N[C@@H](CCCCN)C(=O)N[C@@H](CCCCN)C(=O)N1CCC[C@H]1C(=O)N[C@@H](CC(C)C)C(=O)N[C@@H](CCCCN)C(=O)N[C@@H](CC(C)C)C(=O)N[C@@H](CC(C)C)C(=O)N[C@@H](CCCCN)C(N)=O (HELM PEPTIDE1{[CCCCCCCCCC(=O)[*:2]].K.K.A.L.K.L.A.K.K.P.L.K.L.L.K.[am]}$$$$V2.0) | 19.4 | > 80 | 40 (≈ 74.9 µg/mL) | > 160 | 5 (≈ 9.37 µg/mL) |  |  |  |  |  |  |  |  | 
CCCC(=O)N[C@@H](CC(N)=O)C(=O)N[C@@H](Cc1c[nH]cn1)C(=O)N[C@@H](CCCCN)C(=O)N[C@@H](CCCCN)C(=O)N[C@@H](C)C(=O)N[C@@H](CC(C)C)C(=O)N[C@@H](CCCCN)C(=O)N[C@@H](CC(C)C)C(=O)N[C@@H](C)C(=O)N[C@@H](CCCCN)C(=O)N[C@@H](CCCCN)C(=O)N1CCC[C@H]1C(=O)N[C@@H](CC(C)C)C(=O)N[C@@H](CCCCN)C(=O)N[C@@H](CC(C)C)C(=O)N[C@@H](CC(C)C)C(=O)N[C@@H](CCCCN)C(=O)N[C@@H](CS)C(N)=O (HELM PEPTIDE1{[CCCC(=O)[*:2]].N.H.K.K.A.L.K.L.A.K.K.P.L.K.L.L.K.C.[am]}$$$$V2.0) | 16.1 | > 80 | > 80 | > 160 | > 80 |  |  |  |  |  |  |  |  | 
